The source of these data is patent US7049321B2, “Methods and pharmaceutical compositions for treatment of central and peripheral nervous system disorders and compounds useful therefor” (Israel Institute for Biological Research, priority 2002, dated 2006).

The structures appear in SMILES notation. Numbering of substitutions follows the chain as printed.

The test system of one series is C57BL/10SnJ (B10) mice. Kind of series: Morris water maze in small hippocampus mice. Particulars: for Training, escape latency: 0.5 and 1 mg/kg i.p. (rivastigmine, nicotine 1 mg/kg); for Training, path length: AF150(S) both doses, AF267B the higher dose; for Reversal test, escape latency / Training, swimming speed / Transfer test, spatial bias: mouse, in vivo. In kind it is in vivo. How it is done:
C57BL/10SnJ (B10) mice were selected due to their small hippocampi and decreased number of hippocampal pyramidal neurons; the cell loss seemed to be associated with poor spatial learning.
Each group of mice was randomly divided into 7 treatment groups (n=12-14/group). […] All tested compounds and saline were administered once a day for 4 days before starting the behavioral testing, and then for the duration of the 5-day experiment, 30 minutes before testing.
Training: Each mouse was trained for four consecutive days, four trials (one block) per day, in which the platform position remained constant and was located in the center of the southeast quadrant of the pool. Within each block of four trials, each mouse started at each of the starting locations, but the sequence of locations was randomly selected. A trial consisted of placing a mouse by hand into the water facing the wall of the pool at one of four starting locations, north, south, east or west, around the pool's perimeter. Escape latency (the time to find the platform), path length (the distance traveled by the mouse) and speed (the swimming rate of the mouse) were recorded on each trial by the monitoring system.
For each mouse, the path length, escape latency, and swimming speed of the four trials on each of the 4 training days were grouped into blocks (one block for each day). […] Specific comparisons were performed, using the simple main effects contrasts acalysis, which is specifically suited for testing significant interactions.
Transfer test. During trial No. 17, on the fourth day, the platform was entirely removed from the pool (a probe trial). In this trial, the mouse was placed into the water for a limited period (30 s), and its spatial bias was measured by recording the relative distribution of escape latency and path length over the four quadrants of the pool.
Reversal test. During trials 18–21, on the fifth day, the platform position was changed to the northwest quadrant, opposite to the training quadrant. Thus, during reversal learning, the platform location was moved relative to the configuration of objects within the room, but the pool occupied the same place within the room throughout the entire experiment. Testing of the rats and measures taken were the same as in training.
For each mouse, the escape latency, path length and swimming speed of the reversal test (trials No. 18–21) were grouped into one block.

Series [1] in a line: Metabolic stability, rat liver microsomes. It counts as in vitro ADME. As to conditions: read-out: Metabolic Stability T1/2. The method, then: (§1) The metabolic stability of AF292 was evaluated by monitoring its disappearance while incubated with rat, […], monkey, and human hepatic microsomes. Testosterone, and propranolol were run as assay controls.
Series [2] deals with Human serum albumin (HSA) (Homo sapiens, UniProt P02768). The experiment in a line: Protein binding, human serum albumin. As to conditions: 10 μM. It counts as in vitro ADME. How it is done:
(§2) Protein binding studies were carried out in human plasma, α1-glycoprotein, human serum albumin (HSA), and Dulbecco's Phosphate Buffered Saline (PBS). AF292 was added to a final concentration of 10 μM. […] (μM) and in human […] (AGP), (see Table 1).

The nature of series [3]: Protein binding, human plasma. In kind it is in vitro ADME. How it is done: as §2
A further series has as its target T1, M1 receptors (Rattus norvegicus, UniProt P08482).
T1 construct: from tissue; host or cells: rat cortical membranes
T1 sequence (P08482 1-460): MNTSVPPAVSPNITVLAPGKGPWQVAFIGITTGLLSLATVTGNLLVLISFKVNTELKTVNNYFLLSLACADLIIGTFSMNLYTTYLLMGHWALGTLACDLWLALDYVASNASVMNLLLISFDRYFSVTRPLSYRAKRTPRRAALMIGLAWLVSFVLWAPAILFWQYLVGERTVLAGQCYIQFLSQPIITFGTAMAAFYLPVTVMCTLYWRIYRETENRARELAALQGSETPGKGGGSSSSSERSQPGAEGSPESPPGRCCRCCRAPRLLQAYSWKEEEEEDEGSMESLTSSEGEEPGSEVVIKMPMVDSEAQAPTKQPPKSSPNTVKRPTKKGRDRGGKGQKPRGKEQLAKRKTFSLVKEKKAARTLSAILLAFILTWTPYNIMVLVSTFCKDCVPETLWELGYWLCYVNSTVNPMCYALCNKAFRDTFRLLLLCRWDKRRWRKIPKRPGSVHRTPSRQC
The experiment in a line: [3H]PZ competition binding to rat cortical membranes. As to conditions: for Ki: rat cortex. From the text: Pirenzepine (PZ), a muscarinic antagonist, binds preferentially to M1 receptors while OXO-M binds to all mAChR subtypes non-selectively; the ratio between the Ki values for PZ versus that of OXO-M may be indicative of the selectivity of the tested compound. The smaller the ratio, the more M1 selective is the tested compound. […] The OXO-M/PZ ratio is ˜0.36 showing a moderately high selectivity for the M1 receptor.

The next series has as its target T2, human M1 (Homo sapiens, UniProt P11229).
T2 sequence (P11229 1-460): T1 sequence (P08482 1-460) with V5A, S254T, S309P, K320R, G337A, V413I
The experiment in a line: PI hydrolysis in cells transfected with human M1. In kind it is cell-based. Details: expressed in transfected cells.

Series [4] in a line: Metabolic stability, dog liver microsomes. It counts as in vitro ADME. As to conditions: read-out: Metabolic Stability T1/2. How it is done: as §1
Series [5] can be described thus: Plasma levels of AF267B and AF292 in dogs after AF267B administration (toxicokinetic, LC-MS). It counts as in vivo, Beagle dogs. Particulars: for AUC(0-t) / Cmax / Tmax / half-life / AUC(0-inf) / MRT / MRT at 13 weeks: beagle, plasma, po. An excerpt:
Internal Standard (AF261): 2-Methyl-8-methyl-1-thia-4,8-diaza-spiro[4.5]decan-3-one; MW 200. The analytical plasma samples originate from the in-life part of this study.

The next series deals with AF64A-injected rats. Kind of series: Passive avoidance in AF64A-treated rats. Particulars: for Retention latency: 72 h after training; for Minimal effective dose: p.o.
The mark [6] stands for this setting: both sexes, dog, 6 mg/kg, read-out: plasma half life.
The mark [7] stands for this setting: female, dog, 6 mg/kg, F (1x), AF267B 1.5, 3, 6 mg/kg p.o. single.
Where [8] appears, read: female, dog, 6 mg/kg, F(13w), AF267B 1.5, 3, 6 mg/kg p.o.
The mark [9] stands for this setting: male, dog, 6 mg/kg, M (1x), AF267B 1.5, 3, 6 mg/kg p.o. single.
The mark [10] stands for this setting: male, dog, 6 mg/kg, M(13w), AF267B 1.5, 3, 6 mg/kg p.o.
[11] abbreviates: male, dog, read-out: Elimination half life, Mean T1/2.

Chain of Human serum albumin (HSA) (P02768 25-609): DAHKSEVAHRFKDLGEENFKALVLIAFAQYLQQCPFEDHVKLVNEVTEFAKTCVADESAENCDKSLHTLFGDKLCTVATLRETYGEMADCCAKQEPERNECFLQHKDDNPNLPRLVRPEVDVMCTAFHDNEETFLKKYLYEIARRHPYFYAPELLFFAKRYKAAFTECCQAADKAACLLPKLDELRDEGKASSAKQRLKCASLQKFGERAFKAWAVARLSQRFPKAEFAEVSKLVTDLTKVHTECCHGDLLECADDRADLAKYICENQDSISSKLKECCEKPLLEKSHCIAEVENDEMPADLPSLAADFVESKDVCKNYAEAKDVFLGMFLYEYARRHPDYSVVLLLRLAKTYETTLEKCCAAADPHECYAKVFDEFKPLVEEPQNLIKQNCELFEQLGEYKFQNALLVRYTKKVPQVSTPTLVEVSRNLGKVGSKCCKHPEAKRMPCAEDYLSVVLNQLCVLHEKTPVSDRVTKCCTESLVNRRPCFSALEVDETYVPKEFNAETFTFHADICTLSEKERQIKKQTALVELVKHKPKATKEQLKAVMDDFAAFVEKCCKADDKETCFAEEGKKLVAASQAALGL

On to `CC1=NCC2(CCN(C)CC2)S1` [AF150(S), 2,8-Dimethyl-1-thia-3,8-diaza-spiro[4.5]dec-2-ene], for which, in the series on C57BL/10SnJ (B10) mice, the “Training, escape latency” value is reported as “positively affected”; the “Training, path length” value was “positively affected”; the “Reversal test, escape latency” value is “improved the escape latency”; the “Training, swimming speed” value is “enhancing effect of AF150(S) was equal in both doses”. In addition, the “Transfer test, spatial bias” value in the series with C57BL/10SnJ (B10) mice was “complete spatial bias”.

Consider `CC[C@@H]1SC2(CCN(C)CC2)NC1=O` [AF267B, (S)-2-ethyl-8-methyl-1-thia-4,8-diaza-spiro[4.5]decan-3-one], for which the half-life was 1.47 h in series [1]; over 1.67 h in series [4]; 1 to 2 h in [5] (setting [6]); 3.3 h in [5] (female, dog, read-out: Elimination half life, Mean T1/2); 2.1 h in series [5] (setting [11]). In addition, the “Protein Binding” value in series [2] is listed as “HSA = 32%”. Further, in series [3], the fraction unbound (in general, the share of the substance not bound to proteins or other matrix) at 10 μM came out at 0.75. At M1 receptors, the Ki (in general, a dissociation constant, usually derived from enzyme kinetics or from competition with a known ligand) is 3740 ± 590 nM. The “PI turnover vs. carbachol, M1” value on human M1 is listed as about 66%. For the same molecule, in series [5] (both sexes, dog), the area under the curve AUC(0-t) (in general, the area under the concentration-time curve up to a stated or last time point) lay within 712 to 3950 ng·h/mL. The Cmax (commonly the maximum level reached in the sampled fluid or tissue) in [5] (both sexes, dog) fell in the range of 162 to 1350 ng/mL. The Tmax – broadly, the time from dosing to the highest level – in series [5] (both sexes, dog) lay within 1.5 to 3 h. In addition, the area under the curve AUC(0-inf) – broadly, total exposure, with the tail of the curve extrapolated – in series [5] (setting [7]) is 985 to 3180 ng·h/mL; in [5] (setting [8]), 1030 to 4160 ng·h/mL; in [5] (setting [9]), 800 to 3690 ng·h/mL; in series [5] (setting [10]), 1040 to 4470 ng·h/mL. Further, the MRT (in general, a mean duration of stay, worked out from the concentration-time curve) in series [5] (female, dog, F (1x)) lay in the range of 4.7 to 5.3 h; in series [5] (male, dog, M (1x)) it was 3.8 to 5 h. For the same molecule, the MRT at 13 weeks in series [5] (female, dog, F(13w)) was 3.6 to 5.2 h; in [5] (male, dog, M(13w)) it was 3 to 4.2 h. For the same molecule, the figures for the Retention latency with AF64A-injected rats (0.03 mg/kg p.o.) and with AF64A-injected rats (0.1 mg/kg p.o.) were 105.7 ± 31.9 s and 440.7 ± 46.4 s, respectively. The Minimal effective dose result in the series on AF64A-injected rats is listed as “less than 0.1 mg/kg”. Moreover, in the series with C57BL/10SnJ (B10) mice, the “Training, escape latency” value is on record as “positively affected”. In the series with C57BL/10SnJ (B10) mice, the “Training, path length” value is “positively affected”. Moreover, the “Reversal test, escape latency” value with C57BL/10SnJ (B10) mice is given as “improved the escape latency”. Moreover, the “Training, swimming speed” value in the series on C57BL/10SnJ (B10) mice is on record as “enhanced the swimming speed in a dose dependent manner”. The “Transfer test, spatial bias” value in the series with C57BL/10SnJ (B10) mice was “complete spatial bias”.

`CC[C@@H]1SC2(CCNCC2)NC1=O` [AF292, (S)-2-Ethyl-1-thia-4,8-diaza-spiro[4.5]decan-3-one]: the half-life in series [1] is 1.53 h; in series [4], over 1.67 h; in [5] (setting [6]), 9 to 20 h; in series [5] (female, dog, females, read-out: T1/2 (converted)), 10.6 h; in [5] (setting [11]), 6.3 h. In addition, the “Protein Binding” value in [2] is “Human serum albumin (HSA) = 22%”. In addition, the unbound share (fraction unbound) at 10 μM in series [3] worked out at 0.65. For the same molecule, the OXO-M/PZ ratio on M1 receptors is listed as about 0.36. Also, the Ki at M1 receptors stood at 1640 nM. Besides, the “PI turnover vs. carbachol, M1” value at human M1 is on record as about 35%. Further, in series [5] (F), the “Elimination half life, Mean T1/2” value was “Mean T1/2 (F) = 10.6 +/− 7.6 h”. In [5] (both sexes, dog), this molecule displayed an area under the curve AUC(0-t) of 616 to 2450 ng·h/mL. For the same molecule, the Cmax in series [5] (both sexes, dog) was in the range of 136 to 555 ng/mL. Moreover, in [5] (both sexes, dog), the time to peak (Tmax) was 3 h. In addition, the “Cmax vs. the Cmax of AF267B” value in series [5] (dog, in vivo) was 50–90%. Moreover, the area under the curve AUC(0-inf) lay within 3900 to 4840 ng·h/mL in [5] (setting [7]), 1870 to 12700 ng·h/mL in series [5] (setting [8]), 1140 to 10900 ng·h/mL in series [5] (setting [9]) and 1610 to 4170 ng·h/mL in [5] (setting [10]). Besides, the MRT was 8.7 to 18.7 h in series [5] (female, dog, F (1x)) and 5 to 27.3 h in series [5] (male, dog, M (1x)). The MRT at 13 weeks was 5.1 to 33.7 h in series [5] (female, dog, F(13w)) and 5 to 7.8 h in series [5] (male, dog, M(13w)). The molecule further returned a Retention latency with AF64A-injected rats (1mg/kg p.o.) of 447 ± 46.8 s. For the same molecule, the Minimal effective dose result in the series with AF64A-injected rats is recorded as “below 1 mg/kg”.
